Measured values from patent publication US20100003217A1, “Compounds and Pharmaceutical Compositions for the Treatment of Viral Infections” (priority 2008, published 2010).
Several values for one entry are separate records, joined by “and”; a condition that tells them apart may be missing. Equal values may be shown once.

System: rat primary hepatocytes
Assay: Metabolic disposition of [^14C]-Compound 1 and [^14C]-2′-C-methyl guanosine in rat primary hepatocytes (incubation medium, cellular extracts, nucleotide levels)
Type: in vitro ADME, Sprague Dawley rat
Settings: for Compound 7 AUC0-24h: rat hepatocytes (n=1); for AUC (area under the concentration-time curve) of Compound 7 levels: 0-24 h
Outline: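 Rat, monkey or human primary hepatocytes on collagen I plates (1.6 million cells/mL) were incubated at 37° C with 1 or 10 μM C-8 [^14C]-labelled compound or 2′-C-methyl guanosine for 1, 4, 8 and 24 hours. Medium and 70% methanol cell extracts were analysed by LSC and radio-HPLC. Nucleotides were identified by alkaline phosphatase treatment and retention-time matching to standards.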

[1] = rat hepatocytes (Rs458), 1 μM [^14C]-Compound 1, 1 h
[2] = rat hepatocytes (Rs458), 1 μM [^14C]-Compound 1, 8 h
[3] = rat hepatocytes (Rs458), 1 μM [^14C]-Compound 1, 24 h
[4] = rat hepatocytes Rs448, 10 μM [^14C]-2′-C-methyl guanosine, 1 h
[5] = rat hepatocytes Rs448, 10 μM [^14C]-2′-C-methyl guanosine, 4 h
[6] = rat hepatocytes Rs448, 10 μM [^14C]-2′-C-methyl guanosine, 8 h
[7] = rat hepatocytes Rs448, 10 μM [^14C]-2′-C-methyl guanosine, 24 h
[8] = rat hepatocytes Rs458, 1 μM [^14C]-2′-C-methyl guanosine, 1 h
[9] = rat hepatocytes Rs458, 1 μM [^14C]-2′-C-methyl guanosine, 8 h
[10] = rat hepatocytes Rs458, 1 μM [^14C]-2′-C-methyl guanosine, 24 h
[11] = rat hepatocytes Rs458, 10 μM [^14C]-2′-C-methyl guanosine, 1 h
[12] = rat hepatocytes Rs458, 10 μM [^14C]-2′-C-methyl guanosine, 4 h
[13] = rat hepatocytes Rs458, 10 μM [^14C]-2′-C-methyl guanosine, 8 h
[14] = rat hepatocytes Rs458, 10 μM [^14C]-2′-C-methyl guanosine, 24 h

metabolites observed in cellular extracts (% of total radioactivity) (rat hepatocytes (Rs448, Rs458), 10 μM [^14C]-Compound 1, 1 h, listed as Compd 7): 59.0% and 50.8%
metabolites observed in cellular extracts (% of total radioactivity) (rat hepatocytes (Rs448, Rs458), 10 μM [^14C]-Compound 1, 4 h, listed as Compd 7): 70.9% and 69.1%
metabolites observed in cellular extracts (% of total radioactivity) (rat hepatocytes (Rs448, Rs458), 10 μM [^14C]-Compound 1, 8 h, listed as Compd 7): 73.0% and 72.5%
metabolites observed in cellular extracts (% of total radioactivity) (rat hepatocytes (Rs448, Rs458), 10 μM [^14C]-Compound 1, 24 h, listed as Compd 7): 66.2% and 54.5%
2′-C-methyl guanosine nucleotide levels in cellular extracts [1]: 80.0 pmol/million cells
metabolites observed in cellular extracts (% of total radioactivity) [1]: 50.5%
2′-C-methyl guanosine nucleotide levels in cellular extracts [2]: 238 pmol/million cells
metabolites observed in cellular extracts (% of total radioactivity) [2]: 77.6%
2′-C-methyl guanosine nucleotide levels in cellular extracts [3]: 103 pmol/million cells
metabolites observed in cellular extracts (% of total radioactivity) [3]: 62.1%
Compound 7 AUC0-24h (1 μM [^14C]-2′-C-methyl guanosine): 458 pmol*h/million cells
Compound 7 AUC0-24h (1 μM [^14C]-Compound 1): 3,881 pmol*h/million cells
2′-C-methyl guanosine nucleotide levels in cellular extracts (rat hepatocytes Rs448, 10 μM [^14C]-2′-C-methyl guanosine, 0 h): 0 pmol/million cells
AUC (area under the concentration-time curve) of Compound 7 levels (rat hepatocytes Rs448, 10 μM [^14C]-2′-C-methyl guanosine): 5906 pmol * hr/million cells
2′-C-methyl guanosine nucleotide levels in cellular extracts [4]: 28.0 pmol/million cells
Major metabolites observed in cellular extracts (% of total radioactivity) [4]: 5.21 % of total radioactivity
2′-C-methyl guanosine nucleotide levels in cellular extracts [5]: 141 pmol/million cells
Major metabolites observed in cellular extracts (% of total radioactivity) [5]: 17.9 % of total radioactivity
Major metabolites observed in cellular extracts (% of total radioactivity) [6]: 24.1 % of total radioactivity
2′-C-methyl guanosine nucleotide levels in cellular extracts [7]: 347 pmol/million cells
Major metabolites observed in cellular extracts (% of total radioactivity) [7]: 35.6 % of total radioactivity
2′-C-methyl guanosine nucleotide levels in cellular extracts (rat hepatocytes Rs448, 10 μM [^14C]-Compound 1, 0 h): 0 pmol/million cells
AUC (area under the concentration-time curve) of Compound 7 levels (rat hepatocytes Rs448, 10 μM [^14C]-Compound 1): 31568 pmol * hr/million cells
2′-C-methyl guanosine nucleotide levels in cellular extracts (rat hepatocytes Rs448, 10 μM [^14C]-Compound 1, 1 h): 580 pmol/million cells
2′-C-methyl guanosine nucleotide levels in cellular extracts (rat hepatocytes Rs448, 10 μM [^14C]-Compound 1, 4 h): 1429 pmol/million cells
2′-C-methyl guanosine nucleotide levels in cellular extracts (rat hepatocytes Rs448, 10 μM [^14C]-Compound 1, 8 h): 1791 pmol/million cells
2′-C-methyl guanosine nucleotide levels in cellular extracts (rat hepatocytes Rs448, 10 μM [^14C]-Compound 1, 24 h): 937 pmol/million cells
AUC (area under the concentration-time curve) of Compound 7 levels (rat hepatocytes Rs458, 1 μM [^14C]-2′-C-methyl guanosine): 458 pmol * hr/million cells
2′-C-methyl guanosine nucleotide levels in cellular extracts [8]: 2.60 pmol/million cells
Major metabolites observed in cellular extracts (% of total radioactivity) [8]: 4.56 % of total radioactivity
2′-C-methyl guanosine nucleotide levels in cellular extracts [9]: 20.1 pmol/million cells
Major metabolites observed in cellular extracts (% of total radioactivity) [9]: 26.1 % of total radioactivity
2′-C-methyl guanosine nucleotide levels in cellular extracts [10]: 27.0 pmol/million cells
Major metabolites observed in cellular extracts (% of total radioactivity) [10]: 34.1 % of total radioactivity
AUC (area under the concentration-time curve) of Compound 7 levels (rat hepatocytes Rs458, 1 μM [^14C]-Compound 1): 3881 pmol * hr/million cells
2′-C-methyl guanosine nucleotide levels in cellular extracts (rat hepatocytes Rs458, 10 μM [^14C]-2′-C-methyl guanosine, 0 h): 0 pmol/million cells
AUC (area under the concentration-time curve) of Compound 7 levels (rat hepatocytes Rs458, 10 μM [^14C]-2′-C-methyl guanosine): 5384 pmol * hr/million cells
2′-C-methyl guanosine nucleotide levels in cellular extracts [11]: 23.0 pmol/million cells
Major metabolites observed in cellular extracts (% of total radioactivity) [11]: 4.42 % of total radioactivity
2′-C-methyl guanosine nucleotide levels in cellular extracts [12]: 113 pmol/million cells
Major metabolites observed in cellular extracts (% of total radioactivity) [12]: 16.2 % of total radioactivity
2′-C-methyl guanosine nucleotide levels in cellular extracts [13]: 239 pmol/million cells
Major metabolites observed in cellular extracts (% of total radioactivity) [13]: 27.0 % of total radioactivity
2′-C-methyl guanosine nucleotide levels in cellular extracts [14]: 319 pmol/million cells
Major metabolites observed in cellular extracts (% of total radioactivity) [14]: 33.9 % of total radioactivity
SMILES: C[C@@]1(O)[C@H](O)[C@@H](COP(=O)(O)OP(=O)(O)OP(=O)(O)O)O[C@H]1n1cnc2c(=O)[nH]c(N)nc21 [Compound 7, [(2R)-2-methyl-β-D-ribofuranosyl]guanine 5′-triphosphate]
2′-C-methyl guanosine nucleotide levels in cellular extracts [6]: 258 pmol/million cells and 287 pmol/million cells
